In PMC11050599, “Novel Tetracyclic Azaphenothiazines with the Quinoline Ring as New Anticancer and Antibacterial Derivatives of Chlorpromazine” (International Journal of Molecular Sciences, 2024):
Converted amounts (≈) assume the structure as drawn.

Columns and labels:
cancer cell lines = assay: MTT assay, summary over several cell lines; format: cell-based, human; conditions: Homo sapiens; range over two cell lines not given; read-out: IC50 range against two tested cell lines
Experimental: The human cell lines, such as A549 (lung cancer), MDA-MB-231 (breast cancer), MiaPaca-2 (pancreatic cancer), PC3 (metastatic prostate cancer), HCT-116 (colon carcinoma), and HaCaT (immortalized keratinocytes), were sourced from the American Type Culture Collection (ATCC) in Rockville, USA. Culturing conditions varied as follows: HCT116 cells were cultured in MEM (ThermoSci, Waltham, MA, USA), A549, MDA-MB-231, MiaPaca, HaCaT cells in DMEM High Glucose and PC3 cells were cultured in RPMI (Biowest SAS, Nuaillé, France). The growth medium consisted of 10% fetal bovine serum (FBS, Sigma-Aldrich, St. Louis, MO, USA), 20 mM HEPES (Biowest, Nuaillé, France), and antibiotics (100 U/mL of penicillin and 100 μg/mL of streptomycin) from Gibco, Grand Island, NY, USA. […] These compounds were added to 96-well plates containing study cells (1 × 10^4 cells per well) and incubated for 72 h. […] Cell absorbance results were incorporated into the formula for calculating the relative MTT level (%), enabling the assessment of cell viability following exposure to the test compounds. The cell viability percentage represents the MTT reduction in cells treated with the test compounds compared to the control sample, where only the medium was added to the cells.

HCT116 cells = assay: Annexin V-FITC/PI apoptosis flow cytometry, HCT116; format: cell-based, human
HCT116 (colon cancer) = assay: MTT assay, HCT116 cells; format: cell-based, human
Outline: (§1)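 Test compounds are added to plated cells (1 × 10^4 per well) for 72 h. Cell viability is calculated as the percentage of MTT reduction compared with cells given medium alone.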

[1] = system: MiaPaCa-2 (pancreas cancer); assay: MTT assay, MiaPaCa-2 cells; format: cell-based, human
Outline: as §1

[2] = system: HaCaT (immortalized human keratinocytes); assay: MTT assay, HaCaT normal cells; format: cell-based; conditions: Homo sapiens, HaCaT; MTT, 72 h, normal cells; read-out: IC50 HaCaT (Table 3)
Outline: as §1

S. aureus ATCC 29213 = assay: MIC broth microdilution; format: cell-based; conditions: Staphylococcus aureus, ATCC29213; 19 h, 35 °C; read-out: MIC S. aureus ATCC 29213
Outline: (§2)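 Two-fold serial broth microdilution in Mueller-Hinton II broth, final inoculum adjusted to […]. Compounds dissolved in DMSO, final solvent at most 1%.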

[3] = system: S. epidermidis ATCC 35984; assay: MIC broth microdilution; format: cell-based; conditions: Staphylococcus epidermidis, ATCC35984; 19 h, 35 °C; read-out: MIC S. epidermidis ATCC 35984
Outline: as §2

E. coli ATCC 25922 = assay: MIC broth microdilution; format: cell-based; conditions: Escherichia coli, ATCC25922; 19 h, 35 °C; read-out: MIC E. coli ATCC 25922
Outline: as §2

P. aeruginosa ATCC 15442 = assay: MIC broth microdilution; format: cell-based; conditions: Pseudomonas aeruginosa, ATCC15442; 19 h, 35 °C; read-out: MIC P. aeruginosa ATCC 15442
Outline: as §2

S. aureus ATCC 6538 = assay: MIC broth microdilution; format: cell-based; conditions: Staphylococcus aureus, ATCC6538; 19 h, 35 °C; read-out: MIC S. aureus ATCC 6538
Outline: as §2

S. aureus NCTC 4163 = assay: MIC broth microdilution; format: cell-based; conditions: 19 h, 35 °C
Outline: as §2

S. aureus ATCC 25923 = assay: MIC broth microdilution; format: cell-based; conditions: Staphylococcus aureus, ATCC25923; 19 h, 35 °C; read-out: MIC S. aureus ATCC 25923
Outline: as §2

[4] = system: S. epidermidis ATCC 12228; assay: MIC broth microdilution; format: cell-based; conditions: Staphylococcus epidermidis, ATCC12228; 19 h, 35 °C; read-out: MIC S. epidermidis ATCC 12228
Outline: as §2

A549 (lung cancer) = assay: MTT assay, A549 cells; format: cell-based, human
Outline: as §1

[5] = system: MDA-MB-231 (breast cancer); assay: MTT assay, MDA-MB-231 cells; format: cell-based, human
Outline: as §1

[6] = representative dot plot, Figure 4C, IC50, 72 h
[7] = SI = IC50 for normal cell line (HaCaT)/IC50 cancer cell line

CN1CCCCC1CCN1c2cc(Cl)ccc2Sc2cc3ccccc3nc21 (stereo not drawn) [Compound 11, 8-Chloro-6-(2-(1-methylpiperidin-2-yl)ethyl)-quino[3,2-b]benzo[1,4]thiazine]
IC50 (cancer cell lines): 16.1 to 16.7 µM
cells in late apoptosis/necrosis, HCT116 (HCT116 cells; compound at IC50, 72 h): 15.64%
HCT-116: Alive (HCT116 cells; [6]): 80.61%
HCT-116: Early Apoptotic (HCT116 cells; [6]): 4.12%
HCT-116: Necrotic (HCT116 cells; [6]): 9.25%
HCT-116: Necrotic/Late Apoptotic (HCT116 cells; [6]): 6.03%
IC50 (HCT116 (colon cancer); Homo sapiens, HCT-116, MTT, 72 h, read-out: IC50 HCT116): 7.7 ± 1.2 µM
SI HCT116 (HCT116 (colon cancer); [7]): 1.6
IC50 ([1]; Homo sapiens, MIA PaCa-2, MTT, 72 h, read-out: IC50 MiaPaCa-2): 24.3 ± 3.5 µM
SI MiaPaCa-2 [1, 7]: 0.5
IC50 [2]: 12.7 ± 1.9 µM
MIC (S. aureus ATCC 29213): 128 µg/mL (≈ 312 µM)
MIC [3]: 256 µg/mL (≈ 624 µM)
MIC (E. coli ATCC 25922): > 256 µg/mL
MIC (P. aeruginosa ATCC 15442): > 256 µg/mL
MIC (S. aureus ATCC 6538): 128 µg/mL (≈ 312 µM)
MIC S. aureus NCTC 4163 (S. aureus NCTC 4163): 8 µg/mL (≈ 19.5 µM)
MIC (S. aureus NCTC 4163; Staphylococcus aureus, NCTC4163, read-out: MIC S. aureus NCTC 4163): 8 µg/mL (≈ 19.5 µM)
MIC (S. aureus ATCC 25923): 128 µg/mL (≈ 312 µM)
MIC [4]: 256 µg/mL (≈ 624 µM)
IC50 (A549 (lung cancer); Homo sapiens, A549, MTT, 72 h, mean SD, read-out: IC50 A549): 16 ± 4.2 µM
SI A549 (A549 (lung cancer); [7]): 1
IC50 ([5]; Homo sapiens, MDA-MB-231, MTT, 72 h, MDA-MB231, read-out: IC50 MDA): 16.7 ± 1.1 µM
SI MDA [5, 7]: 0.9
